Consider three molecules from ChEMBL document CHEMBL1143277, “Submicromolar phosphinic inhibitors of Escherichia coli aspartate transcarbamoylase” (Bioorg Med Chem Lett, 2009).

The test system of one experiment is Escherichia coli. The experiment is described as follows: Competitive inhibition of Escherichia coli pEK17/EK1104 ATCase catalytic subunit assessed as formation of N-carbamoyl-L-aspartate by colorimetric assay.
Experiment [1] is described as follows: Inhibition of Escherichia coli pEK17/EK1104 ATCase catalytic subunit assessed as formation of N-carbamoyl-L-aspartate by colorimetric assay relative to carbamyl phosphate.

Activity calls are given as the source filed them. The rule behind the calls is not given here.

The term Ki denotes a dissociation constant, usually derived from enzyme kinetics or from competition with a known ligand. In the case of `O=C(O)C[C@H](NC(=O)C[PH](=O)O)C(=O)O`, in the experiment with Escherichia coli, the result was Active. For the same molecule, the Ki in experiment [1] is 417 nM.
Turning to `O=C(O)C[C@H](NC(=O)CP(=O)(O)O)C(=O)O` [PALA], the outcome in the experiment on Escherichia coli was Active. Also, the Ki in experiment [1] is 16 nM.
As to `O=C(O)C[C@H](NC(=O)CP(=O)(O)CO)C(=O)O`, in the experiment with Escherichia coli, the outcome was Active. In experiment [1], the Ki amounted to 193 nM.
